Laboratory results published in patent publication US20130065931A1, “METHODS FOR REDUCING WIREWORM DAMAGE TO CROPS” (priority 2011, published 2013).

Tested on: wireworm
Assay: Efficacy of chemical treatments on wireworm in potatoes grown in Washington State
Assay type: in vivo
Details: result in words; values only in the figure
Text: Experimental procedure for determining the efficacy of various chemical treatments on wire-worm in potatoes grown in Washington State, United States. Potato seed Solarium tuberosum L., ‘Russet Burbank’ was used in this experiment. Seeds were planted at a depth of 8 inches with spacing within the row at 10 inches and between rows at 34 inches. The experimental site was a 12 ft. by 20 ft. plot containing four experimental replications. [table] [table] [table]

CCOC(=O)OC1=C(c2cc(C)ccc2C)C(=O)N[C@]12CC[C@@H](OC)CC2 [spirotetramat]
percent reduction in wireworm infestation of potatoes (FIG. 3): confirm the efficacy
